The source of these data is patent US20090238852A1, “METHODS FOR CONTROLLING INTRACELLULAR CALCIUM LEVELS ASSOCIATED WITH AN ISCHEMIC EVENT” (University of Utah Research Foundation, priority 2008, published 2009).

Series [1] concerns platelets with HIT antibody.
Method: The second technique employed was flow cytometric platelet analysis. In this functional test, platelets in whole blood are activated by heparin or heparin analog in the presence of heparin antibody in serum from a patient clinically diagnosed with HIT. Using flow cytometry, platelet activation was determined in two manners: by the formation of platelet microparticles and by the increase of platelet surface bound P-selectin.
Specifically, whole blood drawn by careful double-syringe technique was anticoagulated with hirudin (10 μg/ml final concentration). An aliquot of whole blood (50 μL) was immediately fixed in 1 ml 1% paraformaldehyde (gating control). […] Samples were analyzed on an EPICS XL flow cytometer (Beckman-Couter; Hialeah, Fla.) for forward angle (FALS) and side angle light scatter, and for FITC and PE (phycoerythrin) fluorescence. […]
Using the gating control sample, amorphous regions were drawn to include single platelets and platelet microparticles. Platelet microparticles were distinguished from platelets on the basis of their characteristic flow cytometric profile of cell size (FALS) and FITC fluorescence (CD61 platelet marker). […] Data was reported as a percentage of the total number of CD61-positive events analyzed.
Series [2] deals with pigs, 75 min LAD balloon occlusion and 3 h reperfusion. In words: Porcine ischemia/reperfusion model: global ejection fraction by contrast ventriculography. Format: in vivo, pig. To be noted: for Global Ejection Fraction, Baseline: before ischemia and dosing; for Global Ejection Fraction, 180 Minutes after End of Ischemia: control 34 ± 3. An excerpt:
Arterial access was achieved via bilateral femoral artery cut-downs for the insertion of 8F sheaths. Central venous and carotid access was achieved via a neck incision to expose the external jugular vein and common carotid artery. Animals were then anticoagulated with 50 U/kg of unfractionated heparin to maintain an activated clotting time (ACT) between 250-350 seconds, prior to ischemia. A 7-8 Fr pigtail catheter was placed in the left ventricular cavity to measure pressure and for injection of […] microspheres. Angiography was performed to define coronary anatomy and measure the diameter of the left anterior descending coronary artery (LAD) at the point of intended balloon occlusion. A coronary sinus catheter was placed via the external jugular vein under fluoroscopic guidance for coronary venous sampling. Baseline cardiodynamic and hemodynamic data were measured using a solid state transducer-tipped catheter in the left ventricle (Millar Instruments, Houston, Tex.) to measure left ventricular pressure, and a fluid-filled transducer connected to the side port of the femoral artery sheath to measure peripheral arterial pressure. Approximately 3-4 million neutron-activated microspheres (BioPhysics Assay Laboratory, Inc, Worcester, Ma) (15 μm) were delivered through a pig-tail catheter into the left ventricle over a 30 second period, to quantify regional myocardial blood flow (RMBF). Simultaneously with injection, a reference sample was withdrawn at a rate of 7 cc/min from the femoral artery sheath, for 90 seconds during and after injection of microspheres. A contrast ventriculogram (60° right anterior oblique) was obtained to assess global and regional myocardial function at baseline. An angioplasty balloon catheter sized to exceed ambient diameter by 1 mm (range chosen was 3.0-4.0 mm) was then inserted into the proximal LAD, after the first diagonal branch. […] In addition, 2% lidocaine (4-8 ml total) was administered during ischemia, as needed, to attenuate ventricular arrhythmias. Balloon occlusion time was 75 minutes with coronary occlusion confirmed by contrast angiography, ST segment changes on electrocardiography, and quantitatively confirmed by microspheres delivered at the end of ischemia, as described above. Episodes of ventricular fibrillation were immediately treated with electrical cardioversion delivered at 200 Joules. During the ischemic period, animals were randomly assigned to receive either saline vehicle or 2-O, 3-O desulfated heparin (ODSH) at a dose of 5 mg/kg, 15 mg/kg, or 45 mg/kg as an IV bolus at 2 minutes prior to deflation of the balloon (pharmacological postconditioning), and repeated at 90 minutes of reperfusion. Following deflation of the angioplasty balloon, animals underwent 3 hours of further reperfusion and observation. Microspheres were again injected to measure myocardial blood flow at 15 minutes of reperfusion and again at 180 minutes of reperfusion. At the end of 180 minutes of reperfusion, animals were euthanized with an IV injection of pentobarbital sodium (100 mg/kg) and the heart was excised to quantify the area at risk, infarct size, regional myocardial blood flow, and myeloperoxidase activity. Hemodynamic data (left ventricular and arterial blood pressure) and derived variables were recorded continuously using 10× and Datanalyst software (EMKA Technologies, Falls Church, Va.).
Left ventricular contrast angiography was performed at baseline, ischemia, and 180 minutes after relief of ischemia. Contrast (Hypaque, approximately 50 mL) was rapidly injected via a pigtail catheter using a power injector. Left ventricular ejection fraction (LVEF) and regional function of the antero-lateral wall was calculated using the area-length method, which outlined the ventricle at the end of systole and diastole. LVEF and regional function were analyzed independently by 2 blinded observers.

Series [3] has as its system anti-coagulant activity (USP). To be noted: product of the procedure of U.S. Pat. No. 5,990,097; cited from earlier work.

Turning to 2-O, 3-O desulfated heparin [ODSH], the “platelet microparticle formation versus saline control” value in series [1] was “no level of platelet microparticle formation above that of the saline control incubations”. Also, the “Global Ejection Fraction, Ischemia” value in series [2] (ODS 15 mg/kg (second line, r8)) was 23 ± 3%; in series [2] (ODS 45 mg/kg), 30 ± 3%; in series [2] (line printed ODS 15 mg/kg (first of two, r7), control 25 ± 2), 30 ± 3%. The “Global Ejection Fraction, Baseline” value was 57 ± 4% in series [2] (ODS 15 mg/kg (second line, r8)); 60 ± 2% in series [2] (ODS 45 mg/kg); 61 ± 2% in series [2] (line printed ODS 15 mg/kg (first of two, r7), control 52 ± 2). For the same substance, the “Global Ejection Fraction, 180 Minutes after End of Ischemia” value came out at 42 ± 4% in series [2] (ODS 15 mg/kg (second line, r8)); 38 ± 6% in series [2] (ODS 45 mg/kg); 42 ± 5% in series [2] (line printed ODS 15 mg/kg (first of two, r7)). The “ejection fraction at 3 hours after the end of ischemia versus control” value in series [2] (ODS-treated animals, all doses) is “tended to be higher”. In addition, the anti-coagulant activity entry in series [3] is “less than 10 USP units/mg”.
